Laboratory results as given in US10035800B2 (AbbVie Inc., priority 2013, dated 2018).

Legend:
[1] = target: T1, BRD4 (BDI_K57-E168) (Homo sapiens, UniProt O60885); assay: TR-FRET bromodomain binding assay, first bromodomain of BRD4; details: TR-FRET assay protocol G (compound 0.92 μM-15 pM); 100 nM probe
T1 construct: BD1: amino acids K57-E168; made in house
Description: (§1) Bromodomain Domain Binding Assay
(§2) A time-resolved fluorescence resonance energy transfer (TR-FRET) assay was used to determine the affinities of compounds of the Examples listed in Table 1 for each bromodomain of BRD4. His-tagged first (BD1: amino acids K57-E168) and second (BD2: amino acids […]) bromodomains of BRD4 were expressed and purified. An Alexa647-labeled BET-inhibitor was used as the fluorescent probe in the assay.
(§3) Compound dilution series were prepared in DMSO via an approximately 3-fold serial dilution from one of the following: […]
(§4) Assay method E: 0.47 mM to 7.8 nM […]
(§5) Assay method G: 0.047 mM to 0.78 nM
(§6) or 5-fold serial dilution from one of the following: […]
(§7) Assay method B: 2.5 mM-797 nM […]
(§8) For Assay methods B, E, and G: Compound dilutions were added directly into white, low-volume assay plates (Perkin Elmer Proxiplate 384 Plus#6008280) using a Labcyte Echo in conjunction with Labcyte Access and Thermo Multidrop CombinL robotics. Compounds were then suspended in eight microliters (μL) of assay buffer (20 mM Sodium Phosphate, pH 6.0, 50 mM NaCl, 1 mM Ethylenediaminetetraacetic acid disodium salt dihydrate, 0.01% Triton X-100, 1 mM DL-Dithiothreitol) containing His-tagged bromodomain, Europium-conjugated anti-His antibody (Invitrogen PV5596) and Alexa-647-conjugated probe.
(§9) The final concentration of 1× assay mixture for assay methods A, B, C, D, E, F, and G contains 2% DMSO, 8 nM His-tagged bromodomain, 1 nM Europium-conjugated anti-His-tag antibody and 100 nM or 30 nM probe (for BDI or BDII, respectively) and compound concentration in the range of: 50 μM-16 nM for method A, 49.02 μM-15.63 nM for method B, 25 μM-423 pM for method C, 10 μM-169 pM for method D, 9.19 μM-150 pM for method E, 5 μM-85 pM for method F, and 0.92 μM-15 pM for method G.
(§10) After a one-hour equilibration at room temperature, TR-FRET ratios were determined using an Envision multilabel plate reader (Ex 340, Em 495/520).
(§11) TR-FRET data were normalized to the means of 24 no-compound controls (“high”) and 8 controls containing 1 μM un-labeled probe (“low”). Percent inhibition was plotted as a function of compound concentration and the data were fit with the 4 parameter logistic equation to obtain IC50s. Inhibition constants (Ki) were calculated from the IC50s, probe Kd and probe concentration. Typical Z′ values were between 0.65 and 0.75. The minimum significant ratio was determined to evaluate assay reproducibility (Eastwood et al., (2006) J Biomol Screen, 11: 253-261). The MSR was determined to be 2.03 for BDI and 1.93 for BDII, and a moving MSR (last six run MSR overtime) for both BDI and BDII was typically <3.

[2] = target: T2, BRD4 (BDII_E352-M457) (Homo sapiens, UniProt O60885); assay: TR-FRET bromodomain binding assay, second bromodomain of BRD4; details: TR-FRET assay protocol G (compound 0.92 μM-15 pM); 30 nM probe
T2 construct: protocol; made in house
Description: as §1, §2, §3, §4, §5, §6, §7, §8, §9, §10, §11

Compound | Ki [1] | Ki [2]
Cn1cc2c3c(c[nH]c3c1=O)C(C(=O)NC1CCCCC1)N(c1ccc(F)cc1F)c1ccc(CS(C)(=O)=O)cc1-2 (centres unmarked) [Example 158, N-cyclohexyl-4-(2,4-difluorophenyl)-10-methyl-7-((methylsulfonyl)methyl)-11-oxo-3,4,10,11-tetrahydro-1H-1,4,10-triazadibenzo[cd,f]azulene-3-carboxamide] | 60.3 nM | 77.3 nM
CCCCC(CC)COC(=O)N1Cc2c[nH]c3c(=O)n(C)cc(c23)-c2cc(CS(C)(=O)=O)ccc21 (centres unmarked) [Example 53, 2-ethylhexyl 10-methyl-7-((methylsulfonyl)methyl)-11-oxo-10,11-dihydro-1H-1,4,10-triazadibenzo[cd,f]azulene-4(3H)-carboxylate] | 4.78 nM | 21.9 nM
Cn1cc2c3c(c[nH]c3c1=O)CN(S(=O)(=O)c1ccc(F)cc1)c1ccc(CS(C)(=O)=O)cc1-2 [Example 80, 4-((4-fluorophenyl)sulfonyl)-10-methyl-7-((methylsulfonyl)methyl)-3,4-dihydro-1H-1,4,10-triazadibenzo[cd,f]azulen-11(10H)-one] | > 238 nM | > 408 nM
Cn1cc2c3c(c[nH]c3c1=O)C(C(=O)NCc1cocn1)N(c1ccc(F)cc1F)c1ccc(CS(C)(=O)=O)cc1-2 (centres unmarked) [Example 163, 4-(2,4-difluorophenyl)-10-methyl-7-((methylsulfonyl)methyl)-N-(oxazol-4-ylmethyl)-11-oxo-3,4,10,11-tetrahydro-1H-1,4,10-triazadibenzo[cd,f]azulene-3-carboxamide] | 57.4 nM | 45.4 nM
Cn1cc2c3c(c[nH]c3c1=O)C(Cn1ccccc1=O)N(c1ccc(F)cc1F)c1ccc(CS(C)(=O)=O)cc1-2 (single isomer, unassigned) [Example 251] | > 238 nM | 142 nM
CCOC(=O)C1Nc2ncc(F)cc2-c2cn(C)c(=O)c3[nH]cc1c23 (centres unmarked) [Example 39, ethyl 7-fluoro-10-methyl-11-oxo-3,4,10,11-tetrahydro-1H-1,4,5,10-tetraazadibenzo[cd,f]azulene-3-carboxylate] | > 238 nM | > 408 nM
CCS(=O)(=O)c1ccc2c(c1)-c1cn(C)c(=O)c3[nH]cc(c13)CN2[C@@H](C)c1ccccc1 [Example 267, (S)-7-(ethylsulfonyl)-10-methyl-4-(1-phenylethyl)-3,4-dihydro-1H-1,4,10-triazadibenzo[cd,f]azulen-11(10H)-one] | 72.7 nM | 94.7 nM
Cn1cc2c3c(c[nH]c3c1=O)CN(C(=O)OCCF)c1ccc(CS(C)(=O)=O)cc1-2 [Example 96, 2-fluoroethyl 10-methyl-7-((methylsulfonyl)methyl)-11-oxo-10,11-dihydro-1H-1,4,10-triazadibenzo[cd,f]azulene-4(3H)-carboxylate] | 3.46 nM | 1.61 nM
CC(C1CCOC1=O)N1Cc2c[nH]c3c(=O)n(C)cc(c23)-c2cc(CS(C)(=O)=O)ccc21 (centres unmarked) [Example 184, 10-methyl-7-((methylsulfonyl)methyl)-4-(1-(2-oxotetrahydrofuran-3-yl)ethyl)-3,4-dihydro-1H-1,4,10-triazadibenzo[cd,f]azulen-11(10H)-one] | 4.34 nM | 6.82 nM
COc1ccccc1S(=O)(=O)N1Cc2c[nH]c3c(=O)n(C)cc(c23)-c2cc(CS(C)(=O)=O)ccc21 [Example 78, 4-((2-methoxyphenyl)sulfonyl)-10-methyl-7-((methylsulfonyl)methyl)-3,4-dihydro-1H-1,4,10-triazadibenzo[cd,f]azulen-11(10H)-one] | 216 nM | 126 nM
Cn1cc2c3c(c[nH]c3c1=O)CN(C(=O)c1ccc3ccccc3c1)c1ccc(CS(C)(=O)=O)cc1-2 [Example 81, 4-(2-naphthoyl)-10-methyl-7-((methylsulfonyl)methyl)-3,4-dihydro-1H-1,4,10-triazadibenzo[cd,f]azulen-11(10H)-one] | 51.7 nM | 32.3 nM
Cn1cc2c3c(c[nH]c3c1=O)CN(c1ccc(F)cc1F)c1ncncc1-2 [Example 83, 4-(2,4-difluorophenyl)-10-methyl-3,4-dihydro-1H-1,4,5,7,10-pentaazadibenzo[cd,f]azulen-11(10H)-one] | > 238 nM | > 408 nM
Cn1cc2c3c(c[nH]c3c1=O)CN(S(=O)(=O)c1ccc(Oc3ccccc3)cc1)c1ccc(CS(C)(=O)=O)cc1-2 [Example 79, 10-methyl-7-((methylsulfonyl)methyl)-4-((4-phenoxyphenyl)sulfonyl)-3,4-dihydro-1H-1,4,10-triazadibenzo[cd,f]azulen-11(10H)-one] | > 238 nM | > 408 nM
CN(C)C(NCC1c2c[nH]c3c(=O)n(C)cc(c23)-c2cc(CS(C)(=O)=O)ccc2N1c1ccc(F)cc1F)=[N+](C)C (centres unmarked) [Example 130, N-((((4-(2,4-difluorophenyl)-10-methyl-7-((methylsulfonyl)methyl)-11-oxo-3,4,10,11-tetrahydro-1H-1,4,10-triazadibenzo[cd,f]azulen-3-yl)methyl)amino)(dimethylamino)methylene)-N-methylmethanaminium] | 215 nM | 14.6 nM
Cn1cc(-c2[nH]c3c(=O)n(C)cc4c3c2CN(c2ccccc2)c2ccc(S(C)(=O)=O)cc2-4)cn1 [Example 274, 10-methyl-2-(1-methyl-1H-pyrazol-4-yl)-7-(methylsulfonyl)-4-phenyl-3,4-dihydro-1H-1,4,10-triazadibenzo[cd,f]azulen-11(10H)-one] | 2.83 nM | 1.56 nM
N-(2-chloroethyl)-10-methyl-7-((methylsulfonyl)methyl)-11-oxo-10,11-dihydro-1H-1,4,10-triazadibenzo[cd,f]azulene-4(3H)-carboxamide [Example 66] | > 238 nM | > 408 nM
CC1OCCC1N1Cc2c[nH]c3c(=O)n(C)cc(c23)-c2cc(CS(C)(=O)=O)ccc21 (centres unmarked) [Example 180, 10-methyl-7-((methylsulfonyl)methyl)-4-(2-methyltetrahydrofuran-3-yl)-3,4-dihydro-1H-1,4,10-triazadibenzo[cd,f]azulen-11(10H)-one] | 1.51 nM | 2.7 nM
CC(C)C(=O)N1Cc2c[nH]c3c(=O)n(C)cc(c23)-c2cc(CS(C)(=O)=O)ccc21 [Example 54, 4-isobutyryl-10-methyl-7-((methylsulfonyl)methyl)-3,4-dihydro-1H-1,4,10-triazadibenzo[cd,f]azulen-11(10H)-one] | 5.85 nM | 1.45 nM
CC(C1CCOCC1)N1Cc2c[nH]c3c(=O)n(C)cc(c23)-c2cc(CS(C)(=O)=O)ccc21 (racemic) [Example 188, 10-methyl-7-((methylsulfonyl)methyl)-4-(1-(tetrahydro-2H-pyran-4-yl)ethyl)-3,4-dihydro-1H-1,4,10-triazadibenzo[cd,f]azulen-11(10H)-one] | 3.64 nM | 4.62 nM
CCOCCC(C)N1Cc2c[nH]c3c(=O)n(C)cc(c23)-c2cc(CS(C)(=O)=O)ccc21 (racemic) [Example 153, 4-(4-ethoxybutan-2-yl)-10-methyl-7-((methylsulfonyl)methyl)-3,4-dihydro-1H-1,4,10-triazadibenzo[cd,f]azulen-11(10H)-one] | 3.72 nM | 9.18 nM
Cn1cc2c3c(c[nH]c3c1=O)CN(/C=C(/C=C/c1ccccc1)c1ccccc1)c1c(F)cc(F)cc1-2 [Example 57, 4-((1Z,3E)-2,4-diphenylbuta-1,3-dien-1-yl)-5,7-difluoro-10-methyl-3,4-dihydro-1H-1,4,10-triazadibenzo[cd,f]azulen-11(10H)-one] | 64.7 nM | 90.6 nM
CCOC(=O)C1CCC(CNC(=O)N2Cc3c[nH]c4c(=O)n(C)cc(c34)-c3cc(CS(C)(=O)=O)ccc32)CC1 (centres unmarked) [Example 72, ethyl 4-((10-methyl-7-((methylsulfonyl)methyl)-11-oxo-3,4,10,11-tetrahydro-1H-1,4,10-triazadibenzo[cd,f]azulene-4-carboxamido)methyl)cyclohexanecarboxylate] | 26.2 nM | 37 nM
